Measured values taken from the supplement of paper PMC10307832.

Experiments:
Assay in all cases: relative viability (nuclei count vs DMSO), 5 days (fraction); higher = more cells survive
[1] = compound: CC1=CN2C(=O)C=C(N=C2C(=C1)C(C)NC3=CC=CC=C3)N4CCOCC4 [TGX 221] + CS(=O)(=O)N1CCN(Cc2cc3nc(-c4cccc5[nH]ncc45)nc(N4CCOCC4)c3s2)CC1 [Pictilisib] (partner 1 µM)
How it was run: (§1)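 Lung cancer cell lines were seeded in 1536-well plates and dosed by pin tool the next day, with either a single drug or a fixed anchor-drug dose combined with five library-drug doses (not always all listed) spaced in √10 steps. Five days later, one step fixed the cells and stained their nuclei (final 0.05% Triton X-100, 1% formaldehyde, 1 ug/ml Hoechst), and nuclei were counted on 4× images. Relative viability is the nuclei count in treated wells divided by the count in vehicle wells, and each value is the median of duplicate plates.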

[2] = compound: CC1=CN2C(=O)C=C(N=C2C(=C1)C(C)NC3=CC=CC=C3)N4CCOCC4 [TGX 221] + O=C(c1cc(Cc2n[nH]c(=O)c3ccccc23)ccc1F)N1CCN(C(=O)C2CC2)CC1 [Olaparib] (partner 8 µM)
How it was run: as §1

[3] = compound: C1=CC=C(C(=C1)C2=CC=C(C=C2)C3=CSC4=C3C(=C(C(=O)N4)C#N)O)O + CC(=O)Nc1cccc(-n2c(=O)n(C3CC3)c(=O)c3c(Nc4ccc(I)cc4F)n(C)c(=O)c(C)c32)c1 [Trametinib] (partner 0.02 µM)
How it was run: as §1

[4] = compound: C1=CC=C(C(=C1)C2=CC=C(C=C2)C3=CSC4=C3C(=C(C(=O)N4)C#N)O)O + C[C@@H](Oc1cc(-c2cnn(C3CCNCC3)c2)cnc1N)c1c(Cl)ccc(F)c1Cl [Crizotinib] (partner 1 µM)
How it was run: as §1

Cell Line	relative viability ([1]; first compound 0.08 µM)	relative viability ([1]; first compound 0.8 µM)	relative viability ([1]; first compound 2.53 µM)	relative viability ([1]; first compound 8 µM)	relative viability ([2]; first compound 0.08 µM)	relative viability ([2]; first compound 0.253 µM)	relative viability ([2]; first compound 0.8 µM)	relative viability ([2]; first compound 2.53 µM)	relative viability ([2]; first compound 8 µM)	relative viability ([3]; first compound 0.08 µM)	relative viability ([3]; first compound 0.253 µM)	relative viability ([3]; first compound 0.8 µM)	relative viability ([3]; first compound 2.53 µM)	relative viability ([3]; first compound 8 µM)	relative viability ([4]; first compound 0.08 µM)	relative viability ([4]; first compound 0.253 µM)	relative viability ([4]; first compound 0.8 µM)	relative viability ([4]; first compound 2.53 µM)	relative viability ([4]; first compound 8 µM)	relative viability ([1]; first compound 0.253 µM)
LC-2-ad	0.453	0.444	0.491	0.473	0.732	0.69	0.832	0.745	0.73	0.899	0.942	0.909	0.98	0.807	0.42	0.489	0.452	0.49	0.438	
LCLC-97TM1	0.197	0.165	0.164	0.188	0.403	0.423	0.364	0.304	0.31	0.23	0.239	0.247	0.168	0.232	0.428	0.65	0.495	0.271	0.191	0.196
LCLC-103H	0.566	0.678	0.577	0.609	0.747	0.738	0.793	0.764	0.717	0.729	0.618	0.682	0.632	0.62	1.09	1.17	0.967	1.18	1.02	0.592
LK-2	0.583	0.597	0.515	0.659	0.65	0.752	0.551	0.632	0.862	0.594	0.609	0.95	0.745	0.598			0.236	0.21	0.296	0.782
LOU-NH91	0.568	0.528	0.53	0.531	0.95	0.904	0.892	0.951	0.783	0.778	0.865	0.794	0.753	0.705	0.718	0.772	0.792	0.667	0.704	0.532
LU99A	0.268	0.32	0.357	0.317	0.251	0.258	0.297	0.251	0.249	0.566	0.589	0.596	0.585	0.605	0.52	0.524	0.598	0.616	0.527	0.303
LXF-289	0.789	0.711	0.746	0.729	1.02	1.03	1.09	1.03	1.11	0.682	0.695	0.656	0.722	0.755	0.779	0.852	0.789	0.845	0.826	0.751
NCI-H23	0.518	0.446	0.439	0.451	0.302	0.287	0.284	0.296	0.294	0.333	0.321	0.383	0.379	0.261	0.466	0.686	0.381	0.511	0.386	0.465
NCI-H322M	0.399	0.525	0.477	0.478	0.699	0.701	0.876	0.716	0.681	0.501	0.464	0.548	0.539	0.503	0.708	0.535	0.882	0.99	0.868	0.479
NCI-H358	0.374	0.373	0.354	0.32	0.626	0.565	0.705	0.545	0.582	0.13	0.149	0.131	0.135	0.14	0.59	0.478	0.718	0.516	0.553	0.352
NCI-H441	0.486	0.456	0.511	0.508	0.578	0.571	0.515	0.524	0.589	0.35	0.443	0.431	0.496	0.362	0.738	0.873	0.839	0.777	0.525	0.447
NCI-H460	0.339	0.23	0.312	0.378	0.4	0.438	0.389	0.405	0.38	0.0954	0.101	0.201	0.108	0.151		1.03	0.955	1.03	0.27	0.363
NCI-H520	0.335	0.276	0.251	0.296	0.329	0.256	0.262	0.22	0.247	0.5	0.733	0.779	0.613	0.443	0.517	1.03	0.78	0.981	0.524	0.237
NCI-H596	0.4	0.409	0.389	0.466	0.662	0.675	0.746	0.744	0.572	0.73	0.827	0.891	0.695	0.747	0.96	1.02	1.08	0.97	0.834	0.439
NCI-H647	0.407	0.406	0.37	0.412	0.443	0.385	0.553	0.403	0.447		0.422	0.57	0.493	0.25	0.79	1.24	1.23	1.14	0.924	0.404
